How the values were obtained:
[1] = Blood ^14C‐concentrations study; assay type: in vivo, Crl:CD1(ICR) mice; conditions: 1 mg/kg single oral
Protocol: (§1) Crl:CD1(ICR) mice at the age of 7 weeks were purchased from Charles River Laboratories Japan, Inc., Hino Breeding Center. The mice at the age of 8 or 9 weeks were dosed after completing a 7‐day quarantine period and an additional 0‐ to 7‐day acclimatization period. All animal experiments were conducted in accordance with the Guidance for the Care and Use of Laboratory Animals in our laboratory, which corresponds to the Guidelines for Proper Conduct of Animal Experiments (Science Council of Japan). Animals were maintained under constant environmental conditions: room temperature, 21−25°C; relative humidity, 55% ±15%; ventilation, 10 air exchanges per hour; and artificial lighting, from 8:00 am to 8:00 pm. The animals were provided with pelleted diet and water ad libitum. […] All animals were euthanized by bleeding from the abdominal artery under anesthesia.
[^14C]Epyrifenacil was isotopically diluted with the unlabeled test compound to adjust the specific activity to 5.00 MBq/mg. After evaporation of the solvent under nitrogen gas flow, labeled material was suspended in 0.5% (w/v) methylcellulose solution at a concentration of 1 mg/5 ml by grinding in a mortar. The suspension was stored frozen until the start of dosing. […] These dosing suspensions were stored in a refrigerator until dosing commenced.
Two mice per sex at 8 weeks old were given a single oral dose of [^14C]epyrifenacil at 1 mg/kg. Approximately 0.06–0.08 g of blood sample was periodically taken from the saphenous vein at 1, 2, 4, and 8 h after administration, and transferred to vials to measure the radioactivity in whole blood. […] AUC0‐∞ was calculated as the sum of AUC0‐8 h and AUC8 h‐∞. AUC0‐8 h was obtained using a trapezoidal rule, and AUC8 h‐∞ was calculated with a mono‐exponential equation describing the ^14C‐disappearance phase.

[2] = ^14C‐plasma, liver, and kidney distribution study with or without OATP inhibitors; assay type: in vivo, Crl:CD1(ICR) mice; conditions: Female; for Kidney/plasma ratio of ^14C / Liver/plasma ratio of ^14C: 2 h
Protocol: as §1
[^14C]Epyrifenacil was isotopically diluted with the unlabeled test compound to adjust the specific activity to 5.00 MBq/mg. After evaporation of the solvent under nitrogen gas flow, labeled material was suspended in 0.5% (w/v) methylcellulose solution at a concentration of 1 mg/5 ml by grinding in a mortar. The suspension was stored frozen until the start of dosing. The radiochemical purity of the dosing suspension was analyzed by radio‐HPLC and was confirmed to be >99%. […] These dosing suspensions were stored in a refrigerator until dosing commenced.
Three mice per sex at 8 weeks old were given a single oral dose of [^14C]epyrifenacil at 1 mg/kg with or without co‐administration of OATP inhibitors. […] At 2 h after administration of [^14C]epyifenacil, the animals were euthanized by whole blood collection from the abdominal aorta under anesthesia with isoflurane. The sampling time point was selected as the time around T max based on the result of the blood ^14C‐concentration study. Then, the liver and kidney were dissected out, and the amount of ^14C was measured. Aliquots of heparinized blood samples were separated into blood cells and plasma by centrifugation at 2000g for 10 min at 4°C. The total weight of the liver and kidney was determined for each animal. Two aliquots of plasma and tissue samples (approximately 0.05–0.1 g) were weighed in a glass vial, and the radioactivity was measured.

[3] = epyrifenacil 1 mg/kg p.o. + Digoxin 100 mg/kg i.p.
[4] = epyrifenacil 1 mg/kg p.o. + Digoxin 200 mg/kg p.o.
[5] = epyrifenacil 1 mg/kg p.o. + Rifampicin 200 mg/kg p.o.
[6] = epyrifenacil 1 mg/kg p.o., no inhibitor
[7] = 2 h after epyrifenacil 1 mg/kg p.o. + Digoxin 100 mg/kg i.p.
[8] = 2 h after epyrifenacil 1 mg/kg p.o. + Digoxin 100 mg/kg i.p., listed as [^14C]Epyrifenacil
[9] = 2 h after epyrifenacil 1 mg/kg p.o. + Digoxin 200 mg/kg p.o.
[10] = 2 h after epyrifenacil 1 mg/kg p.o. + Digoxin 200 mg/kg p.o., listed as [^14C]Epyrifenacil
[11] = 2 h after epyrifenacil 1 mg/kg p.o. + Rifampicin 200 mg/kg p.o.
[12] = 2 h after epyrifenacil 1 mg/kg p.o. + Rifampicin 200 mg/kg p.o., listed as [^14C]Epyrifenacil

## CCOC(=O)COc1ncccc1Oc1cc(-n2c(=O)cc(C(F)(F)F)n(C)c2=O)c(F)cc1Cl [Epyrifenacil, ethyl[(3‐{2‐chloro‐4‐fluoro‐5‐[3‐methyl‐2,6‐dioxo‐4‐(trifluoromethyl)‐3,6‐dihydropyrimidin‐1(2H)‐yl]phenoxy}pyridin‐2‐yl)oxy]acetate]
[1]; 1 h, Female Animal_1
  ^14C‐Concentration in blood: 0.127 µg eq. of epyrifenacil/g
[1]; 1 h, Female Animal_2
  ^14C‐Concentration in blood: 0.073 µg eq. of epyrifenacil/g
[1]; 1 h, Male Animal_1
  ^14C‐Concentration in blood: 0.030 µg eq. of epyrifenacil/g
[1]; 1 h, Male Animal_2
  ^14C‐Concentration in blood: 0.030 µg eq. of epyrifenacil/g
[1]; 2 h, Female Animal_1
  ^14C‐Concentration in blood: 0.111 µg eq. of epyrifenacil/g
[1]; 2 h, Female Animal_2
  ^14C‐Concentration in blood: 0.064 µg eq. of epyrifenacil/g
[1]; 2 h, Male Animal_1
  ^14C‐Concentration in blood: 0.031 µg eq. of epyrifenacil/g
[1]; 2 h, Male Animal_2
  ^14C‐Concentration in blood: 0.034 µg eq. of epyrifenacil/g
[1]; 4 h, Female Animal_1
  ^14C‐Concentration in blood: 0.076 µg eq. of epyrifenacil/g
[1]; 4 h, Female Animal_2
  ^14C‐Concentration in blood: 0.060 µg eq. of epyrifenacil/g
[1]; 4 h, Male Animal_1
  ^14C‐Concentration in blood: 0.028 µg eq. of epyrifenacil/g
[1]; 4 h, Male Animal_2
  ^14C‐Concentration in blood: 0.051 µg eq. of epyrifenacil/g
[1]; 8 h, Female Animal_1
  ^14C‐Concentration in blood: 0.045 µg eq. of epyrifenacil/g
[1]; 8 h, Female Animal_2
  ^14C‐Concentration in blood: 0.061 µg eq. of epyrifenacil/g
[1]; 8 h, Male Animal_1
  ^14C‐Concentration in blood: 0.024 µg eq. of epyrifenacil/g
[1]; 8 h, Male Animal_2
  ^14C‐Concentration in blood: 0.033 µg eq. of epyrifenacil/g
[1]; female mice
  C max of ^14C in blood: 0.100 μg eq. of epyrifenacil/g
[1]; male mice
  C max of ^14C in blood: 0.040 μg eq. of epyrifenacil/g
[2]; [3]
  Kidney/plasma ratio of ^14C: (2.2)
  Liver/plasma ratio of ^14C: (41)
[2]; [4]
  Kidney/plasma ratio of ^14C: (1.6)
  Liver/plasma ratio of ^14C: (43)
[2]; epyrifenacil 1 mg/kg p.o. + Digoxin 200 mg/kg p.o., listed as [^14C]epyrifenacil
  Liver/plasma ratio of ^14C: ca. 43
[2]; [5]
  Kidney/plasma ratio of ^14C: (0.60)
  Liver/plasma ratio of ^14C: (4.0)
[2]; epyrifenacil 1 mg/kg p.o. + Rifampicin 200 mg/kg p.o., listed as [^14C]epyrifenacil
  Liver/plasma ratio of ^14C: ~4
[2]; [6]
  Kidney/plasma ratio of ^14C: (1.3)
  Liver/plasma ratio of ^14C: (35)
[2]; epyrifenacil 1 mg/kg p.o., no inhibitor, listed as [^14C]epyrifenacil
  Liver/plasma ratio of ^14C: ~35
[2]; [7]
  ^14C‐Concentration, Kidney: 0.184 ± 0.0360 μg eq. of epyrifenacil/g tissue
  ^14C‐Concentration, Liver: 3.390 ± 1.9870 μg eq. of epyrifenacil/g tissue
  ^14C‐Concentration, Plasma: 0.082 ± 0.0574 μg eq. of epyrifenacil/g tissue
[2]; [8]
  ^14C‐Concentration, Kidney: 0.184 μg eq. of epyrifenacil/g tissue
  ^14C‐Concentration, Liver: 3.390 μg eq. of epyrifenacil/g tissue
  ^14C‐Concentration, Plasma: 0.082 μg eq. of epyrifenacil/g tissue
[2]; [9]
  ^14C‐Concentration, Kidney: 0.086 ± 0.0096 μg eq. of epyrifenacil/g tissue
  ^14C‐Concentration, Liver: 2.344 ± 0.4524 μg eq. of epyrifenacil/g tissue
  ^14C‐Concentration, Plasma: 0.054 ± 0.0118 μg eq. of epyrifenacil/g tissue
[2]; [10]
  ^14C‐Concentration, Kidney: 0.086 μg eq. of epyrifenacil/g tissue
  ^14C‐Concentration, Liver: 2.344 μg eq. of epyrifenacil/g tissue
  ^14C‐Concentration, Plasma: 0.054 μg eq. of epyrifenacil/g tissue
[2]; [11]
  ^14C‐Concentration, Kidney: 0.130 ± 0.0548 μg eq. of epyrifenacil/g tissue
  ^14C‐Concentration, Liver: 0.880 ± 0.4160 μg eq. of epyrifenacil/g tissue
  ^14C‐Concentration, Plasma: 0.217 ± 0.1551 μg eq. of epyrifenacil/g tissue
[2]; [12]
  ^14C‐Concentration, Kidney: 0.130 μg eq. of epyrifenacil/g tissue
  ^14C‐Concentration, Liver: 0.880 μg eq. of epyrifenacil/g tissue
  ^14C‐Concentration, Plasma: 0.217 μg eq. of epyrifenacil/g tissue

Reference: article PMC8496750, “Identification of the organic anion transporting polypeptides responsible for the hepatic uptake of the major metabolite of epyrifenacil, S‐3100‐CA, in mice” (Pharmacology Research & Perspectives, 2021)
